For 33 compounds, DC50 results are on record in US11691972B2, “Compounds for targeted degradation of BRD9” (C4 Therapeutics, Inc., priority 2020, dated 2023).

Bounds are passed on as bounds.

The first test concerns the target T1, BRD9 (Homo sapiens, UniProt Q9H8M2).
T1 sequence (Q9H8M2 1-597): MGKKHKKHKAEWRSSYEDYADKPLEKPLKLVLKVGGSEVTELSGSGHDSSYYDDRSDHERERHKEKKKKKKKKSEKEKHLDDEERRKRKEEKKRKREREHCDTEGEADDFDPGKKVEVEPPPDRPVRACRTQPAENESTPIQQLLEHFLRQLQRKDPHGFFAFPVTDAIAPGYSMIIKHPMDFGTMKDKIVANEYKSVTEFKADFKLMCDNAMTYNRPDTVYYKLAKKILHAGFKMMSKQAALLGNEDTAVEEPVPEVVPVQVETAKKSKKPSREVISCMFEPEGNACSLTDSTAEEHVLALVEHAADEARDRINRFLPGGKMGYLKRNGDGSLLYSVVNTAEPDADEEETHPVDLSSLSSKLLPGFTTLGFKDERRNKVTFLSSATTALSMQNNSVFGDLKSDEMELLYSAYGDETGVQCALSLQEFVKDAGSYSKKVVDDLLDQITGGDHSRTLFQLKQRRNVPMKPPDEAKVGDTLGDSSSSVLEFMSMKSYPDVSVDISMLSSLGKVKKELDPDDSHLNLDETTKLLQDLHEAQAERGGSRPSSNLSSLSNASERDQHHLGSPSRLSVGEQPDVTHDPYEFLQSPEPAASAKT
The experiment in a line: HiBiT BRD9 degradation assay in 293T.166 (BRD9-HiBiT) cells. Details: endogenously expressing BRD9 with HiBiT fusion tag via CRISPR; host or cells: 293T.166 (BRD9-HiBiT), also expressing LgBiT ectopically. The conditions noted are these: Table 1; 293T.166 cells, 2.0 hours; class symbols; read-out: HiBiT-Degradation 293T.166 BRD9 2.0 hours (DC50). It counts as cell-based. As for the experimental part: Selected compounds were tested in a BRD9 degradation assay using the HiBit Method.
Dulbecco's modified Eagle medium (DMEM) without phenol red and fetal bovine serum (FBS) were purchased from Gibco (Grand Island, N.Y., USA). Nano-Glo® HiBiT Lytic Assay System was purchased from Promega (Madison, Wis., USA). 293T.166 (BRD9-HiBiT) cell line, endogenously expressing BRD9 with HiBiT fusion tag via CRISPR and ectopically expressing LgBiT tag, was purchased from Promega (Madison, Wis., USA). 293T.167 (BRD7-HiBiT) cell line, endogenously expressing BRD7 with HiBiT fusion tag via CRISPR and ectopically expressing LgBiT tag, was purchased from Promega (Madison, Wis., USA). 293T.92 (BRD4-HiBiT) cell line, endogenously expressing BRD4 with HiBiT fusion tag via CRISPR and ectopically expressing LgBiT tag, was generated in-house. Cell culture flasks and 384-well microplates were acquired from VWR (Radnor, Pa., USA).
BRD9 degradation was determined based on quantification of luminescent signal using Nano-Glo® HiBiT Lytic Assay kit. Test compounds were added to the 384-well plate from a top concentration of 10 μM with 11 points, half log titration in duplicates. 293T.166 cells were added into 384-well plates at a cell density of 10,000 cells per well. The plates were kept at 37° C. with 5% CO2 for 2 hours. BRD7 and BRD4 degradation was similarly determined with 293T.167 cells and 293T.92 cells, respectively. The cells treated in the absence of the test compound were the negative control and the cells without Nano-Glo® HiBiT Lytic reagent were the positive control. After 2-hour incubation, Nano-Glo® HiBiT Lytic Assay reagents were added to the cells. Luminescence was acquired on EnVision™ Multilabel Reader (PerkinElmer, Santa Clara, Calif., USA).
What is called DC50 is the concentration at which degradation of the target reaches its halfway point. `COc1cc(-c2cn(C)c(=O)c3[nH]ncc23)cc(F)c1CN1CCN(C(=O)CN2CCC(c3ccc(NC4CCC(=O)NC4=O)cc3)CC2)CC1` (stereo not drawn) [Compound 9]: the DC50 was < 100 nM.

On to `COc1cc(-c2cn(C)c(=O)c3[nH]ncc23)cc(Cl)c1C(=O)N1CCC(C2CCN(c3ccc(NC4CCC(=O)NC4=O)cn3)CC2)CC1` (stereo not drawn) [Compound 220], for which the DC50 was < 100 nM.

For `COc1cc(-c2cn(C)c(=O)c(C)c2C)cc(OC)c1CN1CCC(N2CCN(c3ccc(NC4CCC(=O)NC4=O)cc3F)CC2)C(F)(F)C1` (single isomer, unassigned) [Compound 173, 3-[4-[4-[1-[[2,6-dimethoxy-4-(1,4,5-trimethyl-6-oxo-3-pyridyl)phenyl]methyl]-3,3-difluoro-4-piperidyl]piperazin-1-yl]-3-fluoro-anilino]piperidine-2,6-dione], the DC50 is < 100 nM.

With `COc1cc(-c2cn(C)c(=O)c3ccccc23)cc(Cl)c1CN1CCC(N(C)C(=O)N2CCC(c3ccc(NC4CCC(=O)NC4=O)cc3)CC2)CC1` (stereo not drawn) [Compound 121], the DC50 was < 100 nM.

Consider `COc1cc(-c2cn(C)c(=O)c3cnccc23)cc(Cl)c1C(=O)N1CCC(N(C)C(=O)N2CCC(c3ccc(NC4CCC(=O)NC4=O)cc3F)CC2)CC1` (stereo not drawn) [Compound 142], for which the DC50 is < 100 nM.

Regarding `COc1cc(-c2cn(C)c(=O)c3cnccc23)cc(Cl)c1CN1CCC(CCC2CCN(c3ccc(NC4CCC(=O)NC4=O)cc3C(F)(F)F)CC2)CC1` (stereo not drawn) [Compound 149], the DC50 is < 100 nM.

Consider `COc1cc(-c2cn(C)c(=O)c3ccccc23)cc(OC)c1CN1CCc2c(CN3CCC(c4ccc(NC5CCC(=O)NC5=O)cc4)CC3)cccc2C1` (stereo not drawn) [Compound 97], for which the DC50 was < 100 nM.

With `COc1cc(-c2cn(C)c(=O)c(C)c2C)cc(Cl)c1CN1CCc2c(CC3CCN(c4ccc(NC5CCC(=O)NC5=O)cc4F)CC3)cccc2C1` (stereo not drawn) [Compound 109], the DC50 is < 100 nM.

`Cc1c(-c2ccc(C(=O)N3CCC(N(C)C(=O)N4CCC(c5ccc(NC6CCC(=O)NC6=O)cc5)CC4)CC3)c(OC(F)(F)F)c2)cn(C)c(=O)c1C` (stereo not drawn) [Compound 129]: the DC50 was < 100 nM.

On to `COc1cc(-c2cn(C)c(=O)c3cnccc23)cc(Cl)c1CN1CCC(CC(=O)N2CCC(c3ccc(NC4CCC(=O)NC4=O)cc3)CC2)CC1` (stereo not drawn) [Compound 44], for which the half-maximal degradation concentration (DC50) was < 100 nM.

`COc1cc(-c2cn(C)c(=O)c3[nH]ncc23)cc(Cl)c1CN1CCN(C(=O)CN2CCC(c3ccc(NC4CCC(=O)NC4=O)cc3)C(F)(F)C2)CC1` (stereo not drawn) [Compound 34]: the DC50 was < 100 nM.

In the case of `COc1cc(-c2cn(C)c(=O)c3[nH]ncc23)cc(Cl)c1CN1CCC(CC(=O)N2CCC(c3ccc(NC4CCC(=O)NC4=O)cc3)CC2)CC1` (stereo not drawn) [Compound 43], the DC50 was < 100 nM.

In the case of `COc1cc(-c2cn(C)c(=O)c3[nH]ncc23)cc(F)c1CN1CCN(C(=O)OC2CCN(c3ccc(NC4CCC(=O)NC4=O)cc3)CC2)CC1` (stereo not drawn) [Compound 146, [1-[4-[(2,6-dioxo-3-piperidyl)amino]phenyl]-4-piperidyl] 4-[[2-fluoro-6-methoxy-4-(6-methyl-7-oxo-1H-pyrazolo[3,4-c]pyridin-4-yl)phenyl]methyl]piperazine-1-carboxylate], the DC50 was < 100 nM.

On to `COc1cc(-c2cn(C)c(=O)c(C)c2C)cc(OC)c1CN1CCN(C(=O)CC2CCN(c3ccc(NC4CCC(=O)NC4=O)cc3C(F)(F)F)CC2)CC1` (stereo not drawn) [Compound 61], for which the DC50 was < 100 nM.

For the compound `COc1cc(-c2cn(C)c(=O)c(C)c2C)cc(OC)c1CN1CCN(C(=O)CN2CCC(c3ccc(NC4CCC(=O)NC4=O)cc3)CC2)CC1` (stereo not drawn) [Compound 30], the DC50 is < 100 nM.

Regarding `COc1cc(-c2cn(C)c(=O)c3[nH]ncc23)cc(OC)c1CN1CC(NC(=O)CN2CCC(c3ccc(NC4CCC(=O)NC4=O)cc3)CC2)C1` (stereo not drawn) [Compound 5], the DC50 is < 100 nM.

Consider `Cc1c(-c2ccc(C(=O)N3CCC(N(C)C(=O)N4CCC(c5ccc(NC6CCC(=O)NC6=O)cc5F)CC4)CC3)c(OC(F)(F)F)c2)cn(C)c(=O)c1C` (stereo not drawn) [Compound 143], for which the DC50 is < 100 nM.

Take `CN(C(=O)N1CCC(c2ccc(NC3CCC(=O)NC3=O)cc2)CC1)C1CCN(Cc2ccc(-c3cn(C)c(=O)c4cc(F)ccc34)cc2OC(F)(F)F)CC1(F)F` (stereo not drawn) [Compound 123]: the DC50 was < 100 nM.

As for `COc1cc(-c2cn(C)c(=O)c3[nH]ncc23)cc(OC)c1CN1CCN(C(=O)Cc2ccc(-c3ccc(NC4CCC(=O)NC4=O)cc3)cc2)CC1` (stereo not drawn) [Compound 167, 3-[4-[4-[2-[4-[[2,6-dimethoxy-4-(6-methyl-7-oxo-1H-pyrazolo[3,4-c]pyridin-4-yl)phenyl]methyl]piperazin-1-yl]-2-oxo-ethyl]phenyl]anilino]piperidine-2,6-dione], the DC50 is < 100 nM.

Regarding `COc1cc(-c2cn(C)c(=O)c3cnccc23)cc(Cl)c1CN1CCC(C2CCN(c3ccc(NC4CCC(=O)NC4=O)nc3)CC2)CC1` (stereo not drawn) [Compound 89], the DC50 is < 100 nM.

`COc1cc(-c2cn(C)c(=O)c3ccccc23)cc(Cl)c1C(=O)N1CCC(N(C)C(=O)N2CCC(c3ccc(NC4CCC(=O)NC4=O)cc3)CC2)CC1` (stereo not drawn) [Compound 136]: the DC50 is < 100 nM.

Turning to `COc1cc(-c2cn(C)c(=O)c3cnccc23)cc(Cl)c1CN1CCC(C2CCN(c3ccc(NC4CCC(=O)NC4=O)cc3)CC2)CC1` (stereo not drawn) [Compound 72], the DC50 is < 100 nM.

Regarding `COc1cc(-c2cn(C)c(=O)c(C)c2C)cc(Cl)c1CN1CCC(F)(C2CCN(c3ccc(NC4CCC(=O)NC4=O)cc3F)CC2)CC1` (stereo not drawn) [Compound 245], the DC50 was < 100 nM.

Turning to `COc1cc(-c2cn(C)c(=O)c3[nH]ncc23)cc(OC)c1CNc1ccc2c(c1)CCN(C(=O)C1CCN(c3ccc(NC4CCC(=O)NC4=O)cc3)CC1)C2` (stereo not drawn) [Compound 170], the DC50 was < 100 nM.

With `CN(C(=O)N1CCC(c2ccc(NC3CCC(=O)NC3=O)cc2F)CC1)C1CCN(C(=O)c2ccc(-c3cn(C)c(=O)c4ccccc34)cc2OC(F)(F)F)CC1` (stereo not drawn) [Compound 139], the DC50 is < 100 nM.

In the case of `CCOc1cc(-c2cn(C)c(=O)c3[nH]ncc23)c(OC)cc1CN1CCN(C(=O)CN2CCC(c3ccc(NC4CCC(=O)NC4=O)cc3)CC2)CC1` (stereo not drawn) [Compound 22], the DC50 was < 100 nM.

With `Cc1c(-c2ccc(C(=O)N3CCC(N(C)C(=O)N4CCC(c5ccc(NC6CCC(=O)NC6=O)cc5)CC4)CC34CC4)c(OC(F)(F)F)c2)cn(C)c(=O)c1C` (stereo not drawn) [Compound 137], the DC50 was < 100 nM.

On to `COc1cc(-c2cn(C)c(=O)c3cnccc23)cc(Cl)c1C(=O)N1CCC(N2CCN(c3ccc(NC4CCC(=O)NC4=O)cc3F)CC2)C(F)(F)C1` (stereo not drawn) [Compound 224], for which the DC50 was < 100 nM.

As to `COc1cc(-c2cn(C)c(=O)c3[nH]ncc23)cc(OC)c1CC1CCN(C(=O)CN2CCC(c3ccc(NC4CCC(=O)NC4=O)cc3)CC2)CC1` (stereo not drawn) [Compound 155, 3-[4-[1-[2-[4-[[2,6-dimethoxy-4-(6-methyl-7-oxo-1H-pyrazolo[3,4-c]pyridin-4-yl)phenyl]methyl]-1-piperidyl]-2-oxo-ethyl]-4-piperidyl]anilino]piperidine-2,6-dione], the DC50 is < 100 nM.

In the case of `CN(C(=O)N1CCC(c2ccc(NC3CCC(=O)NC3=O)cc2)CC1)C1CCN(Cc2ccc(-c3cn(C)c(=O)c4[nH]ncc34)cc2OC(F)(F)F)CC1` (stereo not drawn) [Compound 116], the DC50 is < 100 nM.

Still in this test, the particulars now being: Table 2; 293T.166 cells, 2.0 hours; class symbols; read-out: HiBiT-Degradation 293T.166 BRD9 2.0 hours (DC50).
Consider `COc1cc(-c2cn(C)c(=O)c(C)c2C)cc(Cl)c1CN1CCC(F)(CCC2CCN(c3ccc(NC4CCC(=O)NC4=O)cc3Cl)CC2)CC1` (stereo not drawn) [Compound 263], for which the DC50 is < 100 nM.

For `COc1cc(-c2cn(C)c(=O)c(C)c2C)cc(Cl)c1CN1CCC(N2CCN(c3ccc(N(C)C4CCC(=O)NC4=O)cc3F)CC2)C(F)(F)C1` (stereo not drawn) [Compound 248], the DC50 was < 100 nM.

Take `COc1cc(-c2cn(C)c(=O)c(C)c2C)cc(Cl)c1CN1CCC(C2CCN(c3ccc(NC4CCC(=O)NC4=O)cc3F)CC2)C(F)(F)C1` (single isomer, unassigned) [Compound 259]: the DC50 was < 100 nM.
